Details: Liquid, Vibrating tube method

CCC(O)CO (stereo unspecified) [1,2-butanediol]
mass density [kg/m3]
Details | 278.15 K | 288.15 K | 298.15 K | 308.15 K | 318.15 K | 328.15 K | 338.15 K | 348.15 K | 358.15 K
100 kPa | 1013.4 | 1006.2 | 998.7 | 991.1 | 983.4 | 975.7 | 967.8 | 959.7 | 951.3
1000 kPa | 1013.7 | 1006.5 | 999.1 | 991.5 | 983.8 | 976.2 | 968.3 | 960.2 | 952
5000 kPa | 1015.7 | 1008.6 | 1001.2 | 993.7 | 986.1 | 978.6 | 970.7 | 962.8 | 954.6
10000 kPa | 1018.1 | 1011.1 | 1003.8 | 996.5 | 988.9 | 981.5 | 973.9 | 966.2 | 958.1
15000 kPa | 1020.5 | 1013.5 | 1006.3 | 999.1 | 991.7 | 984.4 | 976.8 | 969.2 | 961.4
20000 kPa | 1022.8 | 1015.9 | 1008.8 | 1001.6 | 994.3 | 987.2 | 979.8 | 972.2 | 964.5
25000 kPa | 1025 | 1018.2 | 1011.3 | 1004.1 | 997 | 989.9 | 982.6 | 975.2 | 967.5
30000 kPa | 1027.2 | 1020.5 | 1013.6 | 1006.5 | 999.4 | 992.5 | 985.3 | 978 | 970.5
35000 kPa | 1029.2 | 1022.7 | 1015.9 | 1008.9 | 1001.9 | 995.1 | 987.9 | 980.7 | 973.5
40000 kPa | 1031.2 | 1024.7 | 1018.2 | 1011.2 | 1004.4 | 997.6 | 990.5 | 983.4 | 976.2
45000 kPa | 1033.3 | 1026.7 | 1020.3 | 1013.5 | 1006.7 | 999.9 | 993.1 | 986.1 | 978.8
50000 kPa | 1035.3 | 1028.8 | 1022.5 | 1015.7 | 1009 | 1002.2 | 995.5 | 988.6 | 981.4
55000 kPa | 1037.3 | 1030.8 | 1024.5 | 1017.9 | 1011.3 | 1004.7 | 997.9 | 991.1 | 984
60000 kPa | 1039.2 | 1033 | 1026.7 | 1020 | 1013.5 | 1006.9 | 1000.3 | 993.4 | 986.5

— the NIST ThermoML archive (doi:10.1016/j.jct.2012.08.014)
